The source of these data is a melting point compilation (Tetko et al.; mined from patent text by program, amines drawn as free bases though some values may be those of a salt).

As to `Cc1cc2c(cc1O)C(C)(C)CC1(CC(C)(C)c3cc(OCCCn4ccnc4)c(C)cc3O1)O2` (configuration not stated), the melting point (commonly the temperature of the solid-liquid transition) fell in the range of 209 to 211 °C.

Turning to `Cc1nc2ccccn2c(=O)c1CCN1CCC(C(=O)c2ccc(F)cc2)CC1`, the melting point was 139 °C.

For `CCc1cccc(-c2ccc(S(=O)(=O)N3c4ccccc4CC3C(=O)NCc3ccc(CC(=O)OC)cc3)cc2)c1` (configuration not stated), the melting point lay in the range of 70 to 75 °C.

Compound `OCCCNC(Cn1ccnc1)c1ccc(Cl)cc1Cl` (configuration not stated) gave a melting point of 77 to 79 °C.

`CC#Cc1cc(=O)n2nc(S(=O)(=O)CCCCCC)sc2n1` showed a melting point of 122 to 125 °C.

Turning to `CCOCc1nc2c(N)nc3ccccc3c2n1Cc1cc(-c2ccccc2)no1`, the melting point fell in the range of 215 to 216 °C.

The compound `CC(C)Cn1c(=O)n(C)c(=O)c2c(Sc3ccc([N+](=O)[O-])cn3)c(Cc3cccc4ccccc34)sc21` had a melting point of 200 to 201 °C.

In turn, `Oc1ccccc1-c1ccc(Cl)nn1` had a melting point of 188 °C.

On to `Cc1nnc2n1-c1ccc(Cl)cc1N(c1ccccc1)C(=O)C2`, for which the melting point fell in the range of 297 to 298 °C.

`CCOC(=O)c1cc(C(=O)c2ccccc2Cl)c(-n2c(C)nnc2CNC(=O)c2cc3ccccc3[nH]2)s1`: the melting point lay in the range of 135 to 140 °C.

As to `CCOC(=O)c1c(-c2cccc(Cl)c2)c2cc(C(c3nc(-c4ccccc4)cs3)n3ccnc3-c3ccccc3)ccc2[nH]c1=O` (configuration not stated), the melting point amounted to 149 °C.

The compound `Cc1cccc(NC(c2ccc(C(F)(F)F)cc2)c2ccc3cccnc3c2O)n1` (configuration not stated) registered a melting point of 136 to 138 °C.

In the case of `COc1c(F)cc(-c2cncc(OC3SCC(O)C(O)C3O)c2)cc1F` (configuration not stated), the melting point came to 203 °C.

`CCCCCCCNC(=O)Nc1ccccc1C(=O)Nc1ccc(CCCCCCC)cc1` registered a melting point of 155 to 157 °C.

In the case of `CC1(C)OC(=O)Nc2ccc(-c3cc(F)cc(C(F)(F)F)c3)cc21`, the melting point lay within 207 to 208 °C.

The compound `CCc1nc2c(N)nc(C)c(C)c2n1Cc1cc(-c2ccc(F)cc2)no1` gave a melting point of 255 to 256 °C.

Compound `CON=C(C)c1ccc2c(c1)ncn2-c1cccc(-c2nccs2)c1` came in with a melting point of 157 to 159 °C.

`CC(CCC(N)=S)N1C(=O)c2ccccc2C1=O` (configuration not stated) registered a melting point of 143 to 146 °C.

`Cc1cccc(Nc2nc3c(s2)CCc2[nH]ncc2-3)n1` displayed a melting point of 280 °C.

With `Cc1cn(-c2ccc(NC(=O)c3ccc(C)c(C#Cc4ccc(NC(C)C)nn4)c3)cc2C(F)(F)F)cn1`, the melting point was 141 to 143 °C.

Take `CCC1C(C)=NN=C(c2ccc(O)c(OC)c2)c2cc(OC)c(O)cc21` (configuration not stated): the melting point lay in the range of 210 to 212 °C.

In turn, `CC#CCOc1ccc(S(=O)(=O)N(C)[C@H]2CCC[C@H]2C(=O)NO)cc1` gave a melting point of 160 to 164 °C.

`COc1ccc(Nc2cc3c(cc2Nc2ccc(OC)cc2)C(=O)NC3=O)cc1` yielded a melting point of 191 to 193 °C.

For the compound `COc1ncc(-c2cc(C=CC(=O)c3ccc(C(=O)O)cc3)c(OC)cc2OC)c(OC)n1`, the melting point was 203 to 205 °C.

Compound `CCCc1nc2c(N)nc3ccccc3c2n1CC(OCC)OCC` displayed a melting point of 148 to 150 °C.

`Cc1c(C(=O)NCc2ccccc2)nc2n1CCc1ccccc1C2OC1CCN(C)CC1` (configuration not stated) returned a melting point of 161 °C.

`COC(=O)C1=CC(=O)CCC1c1cccs1` (racemic): the melting point is 69 °C.

In the case of `CON=Cc1cc(NC(=O)N2CCOCN2)c(F)cc1Cl`, the melting point was in the range of 169 to 171 °C.

`CC(=O)NC[C@H]1CN(c2ccc(N3CCC(C)(O)CC3)c(F)c2)C(=O)O1` showed a melting point of 180 to 182 °C.

As for `C[C@@H](n1cnc2cc(N(C)C)ccc2c1=O)[C@](O)(Cn1cncn1)c1ccc(F)cc1F`, the melting point stood at 201 °C.

`N=C(NCc1c(F)cccc1F)NN=Cc1c(Cl)cccc1Cl` returned a melting point of 168 to 170 °C.

The compound `CCCCc1nc2c(N)nc3ccc(OCC(=O)N4CCOCC4)cc3c2n1C` yielded a melting point of 257 °C.

With `CCOC(=O)C(Cc1ccc(OC)cc1)(C(=O)OCC)c1cc2cc(Br)ccc2s1`, the melting point was 58 to 60 °C.

On to `O=[N+]([O-])c1ccc(-n2ccnc2)cc1`, for which the melting point came to 150 °C.

The compound `OCCC1(c2ccc(Cl)c(Cl)c2)CNCCO1` (configuration not stated) had a melting point of 90 to 91 °C.

`S=C(Nc1ccc(Nc2ccccc2)cc1)Nc1ccc(Nc2ccccc2)cc1` came in with a melting point of 164 to 171 °C.

Consider `COc1ccc(S(=O)(=O)C2(C(=O)O)CCN(Cc3ccc(F)cc3)CC2)cc1`, for which the melting point came out at 154 °C.

Consider `CCOC(=O)C(=O)C(C#N)Cc1ccccc1` (configuration not stated), for which the melting point lay within 80 to 83 °C.

For `O=C(CN1CCC(Cc2ccccc2)CC1)Nc1ccc2[nH]c(=O)oc2c1`, the melting point fell in the range of 210 to 212 °C.

`N#Cc1ccc(O)cc1Cl`: the melting point fell in the range of 157 to 158 °C.

On to `NCc1ccc2sc3ccccc3c(=O)c2c1`, for which the melting point is 134 to 136 °C.

As to `COC(=O)Cn1c(=O)c(-c2c(Cl)cccc2Cl)cc2cnc(N)nc21`, the melting point is 188 to 190 °C.

For `CCOC(=O)Nc1ccc2c(c1)CC[C@H](CCC(F)(F)F)O2`, the melting point came to 88 °C.

With `O=C(O)c1ccc(CNC(=O)C2Cc3ccccc3N2S(=O)(=O)c2ccc(-c3cccc(C(F)(F)F)c3)cc2)c(Cl)c1` (configuration not stated), the melting point lay within 110 to 120 °C.

As for `O=C(O)CNC(=O)C(NC(=O)c1ccccc1)SC(=O)c1ccccc1` (configuration not stated), the melting point was 162 to 164 °C.

`CN(C)C=Cc1[nH]c(=O)ccc1C#N` had a melting point of 298 to 300 °C.

`O=C1N(Cc2cnc(Cl)s2)c2ccccc2C12COc1cc3c(cc12)OCO3` (configuration not stated) returned a melting point of 195 to 198 °C.

In turn, `O=C(O)CCCCCCCCN1C(=O)C(c2ccccc2)N(c2ccccc2)C1=O` (configuration not stated) displayed a melting point of 112 °C.

`COc1ccc(-n2nc(C(F)(F)F)nc2-c2ccc(S(C)(=O)=O)cc2)cc1` registered a melting point of 156 °C.

In the case of `Cc1ccc(-c2cc(NCCNc3cc(-c4ccc(C)cc4)[nH]n3)n[nH]2)cc1`, the melting point turned out to be 179 °C.

`CCN1CCN(Cc2ccc(C(=O)Nc3ccc(C)c(Nc4nccc(-c5cccnc5)n4)c3)cc2)CC1` had a melting point of 210 °C.

In turn, `O=C(O)CN1C(=O)C(=Cc2ccccc2Cl)SC1=S` had a melting point of 238 to 242 °C.

Compound `CN1C(=O)CC2(CC1=O)c1ccccc1Oc1ccccc12` came in with a melting point of 148 to 149 °C.

As for `COc1cc(COc2nn(C)cc2/C=C\c2cscn2)ccc1OCc1nc(-c2ccco2)oc1C`, the melting point lay within 97 to 98 °C.

The compound `COc1cc(Nc2cn(Cc3ccccc3)c(=O)c3ccccc23)cc(OC)c1OC` showed a melting point of 162 to 164 °C.

`CCOC(=O)Cn1c(N)nc(-c2ccccc2)c1-c1ccccc1` displayed a melting point of 173 to 175 °C.

For `COc1cc(CCc2ccc(N)nn2)cc(OC)c1OC`, the melting point is 130 to 132 °C.

`CC(C)(C)COC(=O)Oc1cc(Cl)nnc1-c1ccc(Br)cc1` showed a melting point of 114 to 116 °C.

Consider `CCN1c2ncccc2NC(=O)c2cc(CCc3ccccc3)cnc21`, for which the melting point fell in the range of 183 to 184 °C.

`Cc1ccc(S(=O)(=O)c2cnc(C)nc2Nc2c(C)cc(C)cc2C)cc1` showed a melting point of 202 to 204 °C.

Compound `C#CCN1CC(=O)N(c2ccc(Cl)cc2C)C1=S` returned a melting point of 99 to 102 °C.

Regarding `CCc1cccc(CC)c1NC(=O)NC1CCC(c2ccccc2)CC1` (configuration not stated), the melting point was in the range of 247 to 249 °C.

As for `C=CCn1c(C)c(C)c2cnnc(OCc3cccc(F)c3)c21`, the melting point fell in the range of 85 to 86 °C.

Take `OC(CCC1CCNCC1)c1cc(C2CCCCC2)nc2ccccc12` (configuration not stated): the melting point is 190 to 191 °C.

With `CNC(=O)c1cccc(F)c1Nc1nc(Nc2ccc3c(c2)C(=O)NCCC3)ncc1Cl`, the melting point is 200 °C.

Turning to `COc1ccc(Br)c(COc2ccc3ccc(OC)cc3c2)c1`, the melting point was 156 to 157 °C.

As to `CC(C)N1CC(C(=O)c2c[nH]c(Cc3ccc(F)cc3)n2)=C(O)C1=O`, the melting point is 220 °C.

On to `Cn1nc(-c2ccc(Cl)cc2)n(Cc2ccccc2)c1=O`, for which the melting point fell in the range of 90 to 91 °C.

On to `CC(=Cc1ccc(Cl)cc1Cl)c1ccc(Cl)cc1`, for which the melting point fell in the range of 84 to 85 °C.

As to `COCCOc1ccc(/C=C/C(=O)O)c(OC2CCCCC2)c1`, the melting point lay within 102 to 114 °C.

`CS(=O)(=O)Nc1ccc([N+](=O)[O-])nc1` had a melting point of 187 to 189 °C.

The compound `COC(=O)c1ccc(=O)n(Cc2ccc(-c3ccccc3)cc2)c1` displayed a melting point of 130 to 133 °C.

For `NC(=O)c1nnn(Cc2ccccc2Br)c1N`, the melting point is 211 to 213 °C.

For the compound `C#Cc1[nH]c2cccc3c2c1CC1C3CC(NC(=O)N(CC)CC)CN1C` (configuration not stated), the melting point worked out at 192 °C.

Compound `CN(C)c1ccc(N(c2ccccc2)C2(c3ccc(N(C)C)cc3)OC(=O)c3cc(N(C)C)ccc32)cc1` (configuration not stated) registered a melting point of 163 to 164 °C.

In the case of `CC(C)c1nn(C(=O)NC2CCCC2)c(=O)n1N`, the melting point was 109 °C.

Turning to `CCCC(=O)c1cnc2c(OC)csc2c1Nc1ccc(O)cc1C`, the melting point was 255 to 257 °C.

The compound `O=C1NC(O)C2=C1CN=C(c1ccccc1Cl)c1cc(Cl)ccc12` (configuration not stated) had a melting point of 247 to 249 °C.

In turn, `Cc1nc(-c2ccc(C#N)cc2)sc1C(=O)N[C@H](C)[C@](O)(Cn1cncn1)c1ccc(F)cc1F` showed a melting point of 109 to 111 °C.

Turning to `O=C1Cn2c(c(Cl)c3ccccc32)-c2cc(Cl)ccc2N1`, the melting point lay within 267 to 271 °C.

On to `Nc1ccc(S(=O)(=O)c2cc(Cl)nc(N3CCCC3)c2)cc1`, for which the melting point is 225 to 226 °C.

For the compound `COc1cc(C2C3=C(COC3=O)Nc3c2cc(OC)c(OC)c3OC)ccc1O` (configuration not stated), the melting point lay within 290 to 291 °C.

For the compound `COc1cccc(-c2nc(N)ncc2-c2ccc(=O)n(C(C)C)n2)c1`, the melting point was 211 °C.

Take `CN(C)CCCn1c2c(c3cc(Br)ccc31)CCS(=O)(=O)CCC2`: the melting point lay in the range of 135 to 137 °C.

For the compound `CC(=O)Nc1ccc(C=CC2=NNC(=O)SC2)cc1`, the melting point is 235 to 240 °C.

`COC(=O)C(=Cc1ccc2c(c1)CCO2)N=[N+]=[N-]`: the melting point lay within 77 to 80 °C.

The compound `Cc1nnc2n1-c1sccc1C(c1ccccc1Cl)=NC2` came in with a melting point of 221 to 223 °C.
